One may read the IC50 as the point on the concentration scale where inhibition reaches its midpoint.

The source made the active and inactive calls. The rule behind the calls is not given here.

The source of these data is ChEMBL document CHEMBL6071152, “Design, synthesis, and biological evaluation of oridonin derivatives as novel NLRP3 inflammasome inhibitors for the treatment of acute lung injury” (Eur J Med Chem, 2024).

For assay [1], the system named is Mus musculus. Kind of assay: Anti-inflammatory activity against LPS-stimulated acute lung injury C57BL/6 mouse model assessed as decrease in caspase-1 expression in right lung at 0.1 to 10 mg/kg, ip treated for 3 days and on third day administered with LPS at 30 mins post-compound challenge and measured after 12 hrs by western blot analysis. It counts as functional, organism-based. Particulars: dose 0.1-10 mg/kg, time 3.5 day. A general note: A western blot detects proteins with antibodies after separation by electrophoresis.

Assay [2] has as its system Mus musculus. Description: Anti-inflammatory activity against LPS-stimulated acute lung injury C57BL/6 mouse model assessed as decrease in IL-1 beta level in serum at 0.1 to 1 mg/kg, ip treated for 3 days and on third day administered with LPS at 30 mins post-compound challenge and measured after 12 hrs by ELISA. It counts as functional, organism-based. The settings on record: dose 0.1-1 mg/kg, time 3.5 day. Background: ELISA stands for enzyme-linked immunosorbent assay.

Assay [3] addresses NACHT, LRR and PYD domains-containing protein 3 (Mus musculus) (UniProt Q8R4B8). Description: Inhibition of NLRP3 inflammasome activation in ICR mouse BMDM assessed as inhibition of LPS/ATP-stimulated caspase-1 expression in cell supernatant treated for 3 hrs with LPS followed by incubation with compound for 1 hr and later stimulated with ATP for 0.5 hrs by western blot analysis. It counts as cell-based. The settings on record: dose 0.2-5 µM, time 1.5 hrs.

The target of assay [4] is NACHT, LRR and PYD domains-containing protein 3 (Mus musculus, UniProt Q8R4B8). Kind of assay: Inhibition of NLRP3 inflammasome activation in ICR mouse BMDM assessed as inhibition of LPS/ATP-stimulated IL-1 beta production in cell supernatant treated for 3 hrs with LPS followed by incubation with compound for 1 hr and later stimulated with ATP for 0.5 hrs by ELISA. Type of assay: cell-based.
NACHT, LRR and PYD domains-containing protein 3, sequence (Q8R4B8 whole entry, the tested form may be a part): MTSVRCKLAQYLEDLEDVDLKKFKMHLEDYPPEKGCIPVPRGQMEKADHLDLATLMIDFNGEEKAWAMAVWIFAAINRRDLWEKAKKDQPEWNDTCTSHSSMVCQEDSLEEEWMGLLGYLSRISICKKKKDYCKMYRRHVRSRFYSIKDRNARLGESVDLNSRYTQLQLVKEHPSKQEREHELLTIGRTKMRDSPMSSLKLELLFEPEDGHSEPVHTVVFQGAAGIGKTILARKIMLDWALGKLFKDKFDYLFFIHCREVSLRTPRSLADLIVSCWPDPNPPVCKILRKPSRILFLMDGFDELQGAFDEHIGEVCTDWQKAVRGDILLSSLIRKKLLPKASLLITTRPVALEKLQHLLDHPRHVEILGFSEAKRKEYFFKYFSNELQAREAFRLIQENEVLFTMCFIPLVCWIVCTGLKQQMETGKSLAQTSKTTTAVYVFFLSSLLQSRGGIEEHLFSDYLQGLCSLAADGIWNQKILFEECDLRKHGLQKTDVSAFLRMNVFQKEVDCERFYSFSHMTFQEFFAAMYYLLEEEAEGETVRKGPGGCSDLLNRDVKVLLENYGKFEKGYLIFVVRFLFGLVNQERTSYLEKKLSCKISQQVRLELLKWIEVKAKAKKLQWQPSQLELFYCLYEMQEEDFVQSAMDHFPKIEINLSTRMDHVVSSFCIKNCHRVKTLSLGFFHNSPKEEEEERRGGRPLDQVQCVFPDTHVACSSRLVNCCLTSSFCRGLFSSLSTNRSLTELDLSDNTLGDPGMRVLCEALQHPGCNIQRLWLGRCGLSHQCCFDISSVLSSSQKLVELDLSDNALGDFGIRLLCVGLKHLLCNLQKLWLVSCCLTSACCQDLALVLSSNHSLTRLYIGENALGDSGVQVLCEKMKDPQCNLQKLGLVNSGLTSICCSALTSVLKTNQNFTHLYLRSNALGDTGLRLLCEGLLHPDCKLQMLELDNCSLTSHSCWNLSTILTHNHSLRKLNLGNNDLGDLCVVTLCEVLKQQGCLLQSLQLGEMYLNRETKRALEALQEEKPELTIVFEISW

Assay [5] addresses NACHT, LRR and PYD domains-containing protein 3 (Mus musculus) (UniProt Q8R4B8). Description: Inhibition of NLRP3 inflammasome priming in ICR mouse BMDM assessed as inhibition of pro-IL-1 beta expression in cell lysate at 1 uM treated for 3 hrs with LPS followed by incubation with compound for 1 hr and later stimulated with nigericin for 0.5 hrs by western blot analysis. Type of assay: subcellular. The settings on record: time 1.5 hrs.

The target is the same in assay [6]. Kind of assay: Inhibition of NLRP3 inflammasome priming in ICR mouse BMDM assessed as inhibition of LPS/ATP-stimulated TNF-alpha secretion in cell supernatant at 0.2 to 5 uM treated for 3 hrs with LPS followed by incubation with compound for 1 hr and later stimulated with ATP for 0.5 hrs by ELISA. It counts as cell-based. Particulars: dose 0.2-5 µM, time 1.5 hrs.

For assay [7] the target is unchanged. Kind of assay: Inhibition of NLRP3 inflammasome priming in ICR mouse BMDM assessed as inhibition of NLRP3 expression in cell supernatant at 0.2 to 5 uM pretreated with compound for 1 hr followed by stimulation with LPS for 3 hrs and later incubated with ATP for 30 mins by western blot analysis. It counts as cell-based. The settings on record: dose 0.2-5 µM, time 4.5 hrs.

The target of assay [8] is T1, Interferon-inducible protein AIM2 (Mus musculus) (UniProt Q91VJ1).
T1 sequence (whole entry): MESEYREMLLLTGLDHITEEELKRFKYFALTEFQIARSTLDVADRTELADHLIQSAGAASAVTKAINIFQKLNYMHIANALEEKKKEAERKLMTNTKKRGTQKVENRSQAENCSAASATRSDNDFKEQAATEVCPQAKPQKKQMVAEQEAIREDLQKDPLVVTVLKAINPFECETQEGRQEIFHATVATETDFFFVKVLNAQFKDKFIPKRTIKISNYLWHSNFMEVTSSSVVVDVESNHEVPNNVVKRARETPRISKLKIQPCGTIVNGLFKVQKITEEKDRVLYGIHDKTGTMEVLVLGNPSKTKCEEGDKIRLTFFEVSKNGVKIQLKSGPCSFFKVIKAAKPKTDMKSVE
Description: Inhibition of AIM2 inflammasome activation in ICR mouse BMDM assessed as inhibition of poly(dA:dT)-stimulated IL-1 beta expression in cell supernatant at 1 uM treated for 3 hrs with LPS followed by incubation with compound for 1 hr and later cells transfected with poly(dA:dT) for 4 hrs by western blot analysis. Type of assay: cell-based. Particulars: time 5.0 hrs.

Assay [9] deals with NACHT, LRR and PYD domains-containing protein 3 (Mus musculus) (UniProt Q8R4B8). Description: Inhibition of NLRP3 inflammasome activation in ICR mouse BMDM assessed as inhibition of LPS/MSU-stimulated caspase-1 expression in cell supernatant at 1 uM treated for 3 hrs with LPS followed by incubation with compound for 1 hr and later stimulated with MSU for 4 hrs by western blot analysis. Type of assay: cell-based. Particulars: time 5.0 hrs.
NACHT, LRR and PYD domains-containing protein 3 (Mus musculus), sequence (Q8R4B8 whole entry, the tested form may be a part): as the sequence (Q8R4B8 whole entry, the tested form may be a part) above

Assay [10] relates to Mus musculus. Kind of assay: Anti-inflammatory activity against LPS-stimulated acute lung injury C57BL/6 mouse model assessed as decrease in thickening of alveolar septa in right lung at 1 to 10 mg/kg, ip treated for 3 days and on third day administered with LPS at 30 mins post-compound challenge and measured after 12 hrs by Hematoxylin-Eosin staining analysis. It counts as functional, organism-based. The settings on record: dose 1-10 mg/kg, time 3.5 day.

For assay [11], the target named is NACHT, LRR and PYD domains-containing protein 3 (Mus musculus) (UniProt Q8R4B8). Kind of assay: Inhibition of NLRP3 inflammasome priming in ICR mouse BMDM assessed as inhibition of pro-caspase-1 expression in cell lysate at 1 uM treated for 3 hrs with LPS followed by incubation with compound for 1 hr and later stimulated with nigericin for 0.5 hrs by western blot analysis. It counts as subcellular. The settings on record: time 1.5 hrs.

Assay [12] addresses T1, Interferon-inducible protein AIM2 (Mus musculus). Description: Inhibition of AIM2 inflammasome activation in ICR mouse BMDM assessed as inhibition of poly(dA:dT)-stimulated IL-1 beta secretion in cell supernatant at 1 uM treated for 3 hrs with LPS followed by incubation with compound for 1 hr and later cells transfected with poly(dA:dT) for 4 hrs by ELISA. Type of assay: cell-based. Particulars: time 5.0 hrs.

In assay [13] the target is NACHT, LRR and PYD domains-containing protein 3 (Mus musculus) (UniProt Q8R4B8). Description: Inhibition of NLRP3 inflammasome activation in ICR mouse BMDM assessed as inhibition of LPS/nigericin-stimulated IL-1 beta expression in cell supernatant at 1 uM treated for 3 hrs with LPS followed by incubation with compound for 1 hr and later stimulated with nigericin for 0.5 hrs by western blot analysis. Type of assay: cell-based. The settings on record: time 1.5 hrs.

Assay [14] has as its target NLR family CARD domain-containing protein 4 (Mus musculus) (UniProt Q3UP24). Kind of assay: Inhibition of NLRC4 inflammasome activation in ICR mouse BMDM assessed as inhibition of FLA-ST-stimulated IL-1 beta secretion in cell supernatant at 1 uM treated for 3 hrs with LPS followed by incubation with compound for 1 hr and later stimulated with FLA-ST for 2 hrs by ELISA. Type of assay: cell-based.

Assay [15] has as its target NACHT, LRR and PYD domains-containing protein 3 (Mus musculus) (UniProt Q8R4B8). Description: Inhibition of NLRP3 inflammasome priming in ICR mouse BMDM assessed as inhibition of ASC expression in cell supernatant at 0.2 to 5 uM pretreated with compound for 1 hr followed by stimulation with LPS for 3 hrs and later incubated with ATP for 30 mins by western blot analysis. The settings on record: dose 0.2-5 µM, time 4.5 hrs. It counts as cell-based.

Assay [16] relates to Mus musculus. Description: Anti-inflammatory activity against LPS-stimulated acute lung injury C57BL/6 mouse model assessed as decrease in TNF-alpha mRNA expression in right lung at 0.1 to 1 mg/kg, ip treated for 3 days and on third day administered with LPS at 30 mins post-compound challenge and measured after 12 hrs by RT-qPCR analysis. Type of assay: functional, organism-based. Particulars: dose 0.1-1 mg/kg, time 3.5 day. A general note: In qPCR the cycle at which signal appears reflects the starting amount.

Assay [17] relates to Mus musculus. Kind of assay: Anti-inflammatory activity against LPS-stimulated acute lung injury C57BL/6 mouse model assessed as decrease in partial alveolar congestion in right lung at 1 to 10 mg/kg, ip treated for 3 days and on third day administered with LPS at 30 mins post-compound challenge and measured after 12 hrs by Hematoxylin-Eosin staining analysis. The settings on record: dose 1-10 mg/kg, time 3.5 day. It counts as functional, organism-based.

The target of assay [18] is NACHT, LRR and PYD domains-containing protein 3 (Mus musculus) (UniProt Q8R4B8). Description: Inhibition of NLRP3 inflammasome priming in ICR mouse BMDM assessed as inhibition of TNF-alpha secretion in cell supernatant at 0.2 to 5 uM pretreated with compound for 1 hr followed by stimulation with LPS for 3 hrs and later incubated with ATP for 30 mins by ELISA. It counts as cell-based. The settings on record: dose 0.2-5 µM, time 4.5 hrs.

Assay [19] shares this target. Description: Inhibition of NLRP3 inflammasome activation in ICR mouse BMDM assessed as inhibition of LPS/ATP-stimulated IL-1 beta expression in cell supernatant at 1 uM treated for 3 hrs with LPS followed by incubation with compound for 1 hr and later stimulated with ATP for 0.5 hrs by western blot analysis. Type of assay: cell-based. Particulars: time 1.5 hrs.

NLR family CARD domain-containing protein 4 (Mus musculus), sequence (Q3UP24 whole entry, the tested form may be a part): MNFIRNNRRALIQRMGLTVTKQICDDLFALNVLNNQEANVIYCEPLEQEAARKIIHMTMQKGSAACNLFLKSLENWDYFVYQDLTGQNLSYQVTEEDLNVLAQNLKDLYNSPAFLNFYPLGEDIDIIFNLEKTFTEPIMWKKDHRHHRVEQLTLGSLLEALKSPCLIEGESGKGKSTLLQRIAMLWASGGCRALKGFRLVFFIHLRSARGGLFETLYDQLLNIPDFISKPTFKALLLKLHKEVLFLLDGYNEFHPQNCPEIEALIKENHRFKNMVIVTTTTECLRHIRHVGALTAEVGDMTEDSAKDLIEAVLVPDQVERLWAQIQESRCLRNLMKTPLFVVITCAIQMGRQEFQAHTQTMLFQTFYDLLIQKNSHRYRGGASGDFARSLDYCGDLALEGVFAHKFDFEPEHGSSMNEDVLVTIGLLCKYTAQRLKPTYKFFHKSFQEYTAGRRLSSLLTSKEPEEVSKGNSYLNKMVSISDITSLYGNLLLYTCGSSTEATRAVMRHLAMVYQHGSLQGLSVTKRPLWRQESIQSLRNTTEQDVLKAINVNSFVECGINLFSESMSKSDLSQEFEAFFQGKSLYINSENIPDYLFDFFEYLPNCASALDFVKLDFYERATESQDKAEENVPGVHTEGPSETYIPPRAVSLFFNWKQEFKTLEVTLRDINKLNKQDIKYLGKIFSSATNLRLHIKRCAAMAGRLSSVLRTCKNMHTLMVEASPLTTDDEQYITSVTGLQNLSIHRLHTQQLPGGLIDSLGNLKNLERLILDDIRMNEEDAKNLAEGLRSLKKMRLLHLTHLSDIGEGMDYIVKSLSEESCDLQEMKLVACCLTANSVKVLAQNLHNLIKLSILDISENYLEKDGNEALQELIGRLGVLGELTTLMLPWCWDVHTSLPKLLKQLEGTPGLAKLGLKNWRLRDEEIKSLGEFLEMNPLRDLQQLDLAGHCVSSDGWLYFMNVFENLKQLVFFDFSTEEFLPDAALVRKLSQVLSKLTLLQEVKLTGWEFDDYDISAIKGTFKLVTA

In the case of `C=C1C(=O)[C@]23[C@H](OC(=O)Nc4ccc(F)cc4)[C@H]1CC[C@H]2[C@]12C=CCC(C)(C)[C@H]1[C@H](O)[C@@]3(O)OC2`, the outcome with Mus musculus [1], in the assay on Mus musculus [10] and with Mus musculus [17] was Active. Moreover, the Activity entry in the assay on Mus musculus [2] and in the assay with Mus musculus [16] was “Dose-Dependent Effect” in each case. The inhibition entry in [3] was “Dose-Dependent Effect”. In assay [4], the IC50 was found to be 0.0418 µM. Moreover, the inhibition result in [5], in assay [6], in assay [7], in assay [8], in assay [11] and in assay [12] was “inactive” throughout. Moreover, the inhibition result in assay [14], in assay [15] and in [18] was “inactive” in each case. Further, the inhibition result in assay [9], in assay [13] and in assay [19] was “Active” in each case.
